Experimental data as given in ChEMBL document CHEMBL5113375, “Development of Mcl-1 inhibitors for cancer therapy” (Eur J Med Chem, 2021).
“And” between values parts separate entries of the source, which are not always exact repeats. Identical values can stand only once.

Columns and labels:
[1] = Cytotoxicity against human MOLP8 cells by caspase-3/7 activation; type: functional, cell-based; conditions: MOLP-8
[2] = target: BCL2/BCL2L11 (Homo sapiens, UniProt P10415); assay: Inhibition of Bcl-2/Bim (unknown origin) by ELISA method; type: protein assay
BCL2/BCL2L11, sequence (P10415 whole entry): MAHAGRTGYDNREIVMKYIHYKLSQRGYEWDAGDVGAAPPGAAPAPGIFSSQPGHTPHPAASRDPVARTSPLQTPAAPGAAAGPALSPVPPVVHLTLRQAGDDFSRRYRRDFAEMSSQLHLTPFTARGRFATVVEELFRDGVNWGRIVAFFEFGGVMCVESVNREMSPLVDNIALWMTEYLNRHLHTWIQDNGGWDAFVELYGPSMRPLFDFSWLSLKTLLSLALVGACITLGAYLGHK
BCL2/BCL2L11, sequence (O43521 whole entry, further chain): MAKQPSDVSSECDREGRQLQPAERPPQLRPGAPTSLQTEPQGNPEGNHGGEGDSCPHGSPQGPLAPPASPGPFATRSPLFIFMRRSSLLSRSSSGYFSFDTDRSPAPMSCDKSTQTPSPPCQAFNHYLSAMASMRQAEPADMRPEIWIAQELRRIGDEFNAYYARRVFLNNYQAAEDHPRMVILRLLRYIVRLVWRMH

[3] = target: T1, Induced myeloid leukemia cell differentiation protein Mcl-1/Bcl-2-like protein 11 (Homo sapiens, UniProt Q07820); assay: Inhibition of Mcl-1/Bim (unknown origin) by ELISA method; type: protein assay
T1 sequence (Q07820 whole entry): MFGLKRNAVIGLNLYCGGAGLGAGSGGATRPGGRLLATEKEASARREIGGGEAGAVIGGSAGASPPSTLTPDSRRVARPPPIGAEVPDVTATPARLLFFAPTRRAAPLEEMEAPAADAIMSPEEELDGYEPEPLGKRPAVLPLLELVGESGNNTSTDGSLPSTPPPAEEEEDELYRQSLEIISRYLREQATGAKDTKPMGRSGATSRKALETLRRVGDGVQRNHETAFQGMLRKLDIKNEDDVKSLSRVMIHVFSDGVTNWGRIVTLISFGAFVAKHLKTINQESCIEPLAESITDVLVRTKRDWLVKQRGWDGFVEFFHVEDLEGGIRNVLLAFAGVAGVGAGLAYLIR
T1 sequence (O43521 whole entry, further chain): as the sequence (O43521 whole entry, further chain) above

[4] = target: T2, Bcl-xL/Bcl-2-like protein 11 (Homo sapiens, UniProt Q07817); assay: Inhibition of GST-tagged Bcl-xL/Bim (unknown origin) incubated for 15 mins followed by Bim addition measured after 2 hrs by ELISA method; type: protein assay
T2 sequence (Q07817 whole entry): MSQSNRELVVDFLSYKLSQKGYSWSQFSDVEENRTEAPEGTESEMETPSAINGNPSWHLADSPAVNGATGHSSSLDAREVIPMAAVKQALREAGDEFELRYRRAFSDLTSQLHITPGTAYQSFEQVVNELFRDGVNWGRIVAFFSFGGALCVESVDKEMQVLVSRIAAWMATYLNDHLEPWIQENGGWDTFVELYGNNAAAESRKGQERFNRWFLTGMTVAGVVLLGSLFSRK
T2 sequence (O43521 whole entry, further chain): as the sequence (O43521 whole entry, further chain) above

[5] = target: T1, Induced myeloid leukemia cell differentiation protein Mcl-1/Bcl-2-like protein 11; assay: Inhibition of GST-tagged Mcl-1/Bim (unknown origin) incubated for 15 mins followed by Bim addition measured after 2 hrs by ELISA method; type: protein assay
[6] = target: T3, BCL2L2/BID (Homo sapiens, UniProt P55957+Q92843); assay: Binding affinity to Bcl-W/Bid (unknown origin) by fluorescence polarization assay; type: protein assay
T3 sequence (Q92843 whole entry): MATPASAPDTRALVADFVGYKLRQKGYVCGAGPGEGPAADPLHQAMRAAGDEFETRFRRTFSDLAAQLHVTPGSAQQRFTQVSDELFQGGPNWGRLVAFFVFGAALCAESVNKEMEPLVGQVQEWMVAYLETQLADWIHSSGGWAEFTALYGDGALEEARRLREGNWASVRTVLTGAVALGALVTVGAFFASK
T3 sequence (P55957 whole entry): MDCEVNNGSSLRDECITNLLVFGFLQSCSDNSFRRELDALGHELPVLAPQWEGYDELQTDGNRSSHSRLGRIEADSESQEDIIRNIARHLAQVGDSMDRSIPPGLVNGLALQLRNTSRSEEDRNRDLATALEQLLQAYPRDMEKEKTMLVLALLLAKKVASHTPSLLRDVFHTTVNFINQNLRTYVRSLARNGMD

[7] = target: T4, Induced myeloid leukemia cell differentiation protein Mcl-1/BH3-interacting domain death agonist (Homo sapiens, UniProt Q07820); assay: Binding affinity to Mcl-1/Bid (unknown origin) assessed as inhibition constant by fluorescence polarization assay; type: protein assay
T4 sequence (Q07820 whole entry, one chain of several, the tested form may be a part): as the sequence (Q07820 whole entry) above

[8] = target: T5, BCL2/BID (Homo sapiens, UniProt P10415); assay: Binding affinity to Bcl-2 /Bid (unknown origin) assessed as inhibition constant by fluorescence polarization assay; type: protein assay
T5 sequence (P10415 whole entry, one chain of several): as the sequence (P10415 whole entry) above

[9] = target: T2, Bcl-xL/Bcl-2-like protein 11; assay: Binding affinity to Bcl-xL/Bim (unknown origin) assessed as inhibition constant by fluorescence polarization assay; type: protein assay
[10] = target: T2, Bcl-xL/Bcl-2-like protein 11; assay: Inhibition of Bcl-xL/Bim (unknown origin) by ELISA method; type: protein assay
[11] = target: MCL1-BAK1 complex (Homo sapiens, UniProt Q07820); assay: Binding affinity to Mcl-1/Bak (unknown origin) assessed as inhibition constant by fluorescence polarization assay; type: protein-complex assay
MCL1-BAK1 complex, sequence (Q07820 whole entry, one chain of several): as the sequence (Q07820 whole entry) above

[12] = target: Apoptosis regulator Bcl-2/Bcl-2 homologous antagonist/killer (Homo sapiens, UniProt P10415+Q16611); assay: Inhibition of Bcl-2/Bak (unknown origin); type: protein assay
Apoptosis regulator Bcl-2/Bcl-2 homologous antagonist/killer, sequence (P10415 whole entry, one chain of several): as the sequence (P10415 whole entry) above

[13] = target: T6, BCL2A1/BAK1 (Homo sapiens, UniProt Q16548+Q16611); assay: Inhibition of Bfl-1/Bak (unknown origin); type: protein assay
T6 sequence (Q16611 whole entry): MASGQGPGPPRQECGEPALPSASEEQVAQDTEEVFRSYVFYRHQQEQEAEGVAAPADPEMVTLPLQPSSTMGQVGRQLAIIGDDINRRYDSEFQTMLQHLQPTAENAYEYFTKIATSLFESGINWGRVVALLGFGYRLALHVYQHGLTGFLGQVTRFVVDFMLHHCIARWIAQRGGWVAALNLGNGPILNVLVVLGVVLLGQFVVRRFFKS
T6 sequence (Q16548 whole entry): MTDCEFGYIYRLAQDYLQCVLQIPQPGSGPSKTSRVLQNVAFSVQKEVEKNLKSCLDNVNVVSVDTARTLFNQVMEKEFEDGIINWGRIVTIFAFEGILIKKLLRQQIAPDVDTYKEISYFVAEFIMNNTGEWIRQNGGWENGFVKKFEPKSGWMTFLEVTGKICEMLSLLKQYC

[14] = target: T4, Induced myeloid leukemia cell differentiation protein Mcl-1/BH3-interacting domain death agonist; assay: Binding affinity to Mcl-1/Bid (unknown origin) by fluorescence polarization assay; type: protein assay
[15] = target: T5, BCL2/BID; assay: Binding affinity to Bcl-2/Bid (unknown origin) by fluorescence polarization assay; type: protein assay
[16] = target: T7, Bcl-xL/BH3-interacting domain death agonist (Homo sapiens, UniProt Q07817); assay: Binding affinity to Bcl-xL/Bid (unknown origin) by fluorescence polarization assay; type: protein assay
T7 sequence (Q07817 whole entry, one chain of several, the tested form may be a part): as the sequence (Q07817 whole entry) above

[17] = Inhibition of Mcl-1 (172 - 327 residues)/Noxa (unknown origin) by fluorescence polarization assay; set-up: species or system Homo sapiens
[18] = target: T4, Induced myeloid leukemia cell differentiation protein Mcl-1/BH3-interacting domain death agonist; assay: Inhibition of Mcl-1/Bid (unknown origin) by fluorescence polarization assay; type: protein assay
[19] = target: T7, Bcl-xL/BH3-interacting domain death agonist; assay: Inhibition of Bcl-xL/Bid (unknown origin) by fluorescence polarization assay; type: protein assay

Question: With `Cc1c(-c2cccc3c(CCCOc4cccc5ccccc45)c(C(=O)O)[nH]c23)c(COc2ccc(B(O)O)cc2)nn1C` as the compound, how does the IC50 [1] read?
Answer: > 11000 nM

Question: For `Cc1c(-c2cccc3c(CCCOc4cccc5ccccc45)c(C(=O)O)n(C)c23)c(COc2ccc(B(O)O)c(C=O)c2)nn1C`, which IC50 [1] is on record?
Answer: 75 nM

Question: With `N#CC1=C(NCCC(=O)CCCCC(=O)NCCCCCNc2cccc3c2C(=O)N(C2CCC(=O)NC2=O)C3=O)c2ccc(Sc3ccc(Br)cc3)c3cccc(c23)C1=O` (stereo not drawn) as the compound, how does the IC50 [2] read?
Answer: 540 nM

Question: What about the IC50 [3] of the same compound?
Answer: 780 nM

Question: Which IC50 [4] does the source give for `COc1ccc(CSc2ccc(C(=O)c3[nH]c(Cl)c(Cl)c3-n3cc(Cl)c(Cl)c3C(=O)c3ccc(SCc4ccc(OC)cc4)cc3O)c(O)c2)cc1` here?
Answer: 600 nM

Question: What about the IC50 [5] of the same compound?
Answer: 700 nM

Question: For `O=C(O)CSc1cc(NS(=O)(=O)c2cccs2)c2ccccc2c1O`, which Ki [6] is on record?
Answer: 37500 nM

Question: For `CCOC(=O)C1=CN=c2s/c(=C\c3cn(Cc4ccccc4)c4ccccc34)c(=O)n2[C@H]1c1cccc(C(C)=O)c1`, which Ki [7] is on record?
Answer: 740 nM

Question: What about the Ki [8] of the same compound?
Answer: 590 nM

Question: What about the Ki [9] of the same compound?
Answer: 340 nM

Question: Which IC50 [1] does the source give for `Cc1c(-c2cccc3c(CCCOc4cccc5ccccc45)c(C(=O)O)[nH]c23)c(COc2ccc(B(O)O)c(C=O)c2)nn1C` here?
Answer: 460 nM

Question: With `O=C(c1ccccc1O)c1[nH]c(Cl)c(Cl)c1-n1c(C(=O)c2ccccc2O)cc(Cl)c1Cl` as the compound, how does the IC50 [3] read?
Answer: 12700 nM and 12500 nM

Question: And the IC50 [10]?
Answer: 19700 nM and 12000 nM

Question: With `CC1=C[C@@H](/C=C(\C)c2ccc(C(=O)O)cc2)[C@]2(C(=O)O)C=C[C@@H](CCOC(=O)c3ccc(Oc4cccnc4)cc3)C[C@@H]2C1` as the compound, how does the Ki [7] read?
Answer: 106 nM

Question: And the Ki [11]?
Answer: 153 nM

Question: Which Ki [7] does the source give for `O=C(Nc1ccccc1)C1=CN=c2s/c(=C\c3cn(Cc4ccccc4)c4ccccc34)c(=O)n2[C@H]1c1ccccc1` here?
Answer: 2200 nM

Question: And the Ki [8]?
Answer: 810 nM

Question: And the Ki [9]?
Answer: 1100 nM

Question: Which results are given for `CC1=C(C2=C(C)C(=O)c3c(cc(O)c(O)c3Cc3ccccc3)C2=O)C(=O)c2cc(O)c(O)c(Cc3ccccc3)c2C1=O`?
Answer: IC50 [12]: 31000 nM; IC50 [13]: 25000 nM

Question: Which Ki [11] does the source give for `Cc1cc(OCCCS(=O)(=O)N2CC(C(=O)O)Cc3ccccc32)cc(C)c1Cl` (stereo not drawn) here?
Answer: 7770 nM

Question: With `CCOC(=O)CSc1ccc(C(=O)c2[nH]c(Cl)c(Cl)c2-n2cc(Cl)c(Cl)c2C(=O)c2ccc(SCC(=O)OCC)cc2O)c(O)c1` as the compound, how does the IC50 [4] read?
Answer: 1200 nM

Question: What about the IC50 [5] of the same compound?
Answer: 1800 nM

Question: Which Ki [14] does the source give for `O=C(Cn1nnnc1-c1ccccc1Oc1ccc(Cl)cc1Cl)NNC(=S)Nc1ccc([N+](=O)[O-])cc1` here?
Answer: 2000 nM

Question: And the Ki [15]?
Answer: 2400 nM

Question: And the Ki [16]?
Answer: 3000 nM

Question: With `CC(C)COc1nc(Oc2ccccc2)ccc1C(=O)O` as the compound, how does the Ki [11] read?
Answer: 261000 nM

Question: For `C=C(c1ccc(S(=O)(=O)Nc2cc(-c3ccc(C)c4ccccc34)ccc2C(=O)O)cc1)C(C)C`, which IC50 [17] is on record?
Answer: 80 nM

Question: With `COC(=O)C1=CN=c2s/c(=C\c3cn(Cc4ccccc4)c4ccccc34)c(=O)n2[C@@H]1c1ccc(C(C)=O)cc1` as the compound, how does the Ki [7] read?
Answer: 420 nM

Question: And the Ki [8]?
Answer: 1000 nM

Question: And the Ki [9]?
Answer: 550 nM

Question: For `COC(=O)c1ccc(C(=O)c2c(Cl)c(Cl)c3n2-c2c([nH]c(Cl)c2Cl)C(=O)c2ccc(C(=O)OC)cc2O3)c(O)c1`, which IC50 [3] is on record?
Answer: 4300 nM

Question: And the IC50 [10]?
Answer: 3400 nM

Question: With `N#CC1=C(NCCC(=O)CCCCC(=O)NCCOCCOCCNc2cccc3c2C(=O)N(C2CCC(=O)NC2=O)C3=O)c2ccc(Sc3ccc(Br)cc3)c3cccc(c23)C1=O` (stereo not drawn) as the compound, how does the IC50 [2] read?
Answer: 4940 nM

Question: And the IC50 [3]?
Answer: 11800 nM

Question: Which IC50 [18] does the source give for `Cc1cc2c(C(C)C)c(O)c(O)c(C=O)c2c(O)c1-c1c(C)cc2c(C(C)C)c(O)c(O)c(C=O)c2c1O` [GOSSYPOL] here?
Answer: 1750 nM

Question: What about the IC50 [19] of the same compound?
Answer: 3030 nM

Question: Which IC50 [1] does the source give for `CCc1nn(C)c(CC)c1-c1cccc2c(CCCOc3cccc4ccccc34)c(C(=O)O)n(CCN3CCOCC3)c12` here?
Answer: 350 nM
